These results are taken from US11912693B2, “Compounds for modulating S1P1 activity and methods of using the same” (TREVENA, INC., priority 2017, dated 2024).

Series [1] concerns the target T1, human sphingosine-1-phosphate receptor 1 (S1P1) (Homo sapiens (Human), UniProt P21453). Description: Inhibition of cAMP production (HTRF cAMP HiRange), S1P1 CHO-K1 cells. The class given is cell-based. The conditions noted are these: for hS1P1 cAMP pEC50: inhibition of cAMP production, S1P1 CHO-K1 cells. In a few lines:
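CHO-K1 cells stably co-expressing human S1P1 (C-terminal Prolink tag) and EA-β-arrestin2 were grown in AssayComplete Media 6 at 37° C. and 5% CO2, plated, and incubated overnight. Agonist-driven inhibition of intracellular cAMP was read by TR-FRET with the HTRF cAMP HiRange kit on a PheraStar reader. Potency is pEC50, and efficacy (SPAN) is normalized to fingolimod.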
Target sequence in this assay (P21453 whole entry, looked up): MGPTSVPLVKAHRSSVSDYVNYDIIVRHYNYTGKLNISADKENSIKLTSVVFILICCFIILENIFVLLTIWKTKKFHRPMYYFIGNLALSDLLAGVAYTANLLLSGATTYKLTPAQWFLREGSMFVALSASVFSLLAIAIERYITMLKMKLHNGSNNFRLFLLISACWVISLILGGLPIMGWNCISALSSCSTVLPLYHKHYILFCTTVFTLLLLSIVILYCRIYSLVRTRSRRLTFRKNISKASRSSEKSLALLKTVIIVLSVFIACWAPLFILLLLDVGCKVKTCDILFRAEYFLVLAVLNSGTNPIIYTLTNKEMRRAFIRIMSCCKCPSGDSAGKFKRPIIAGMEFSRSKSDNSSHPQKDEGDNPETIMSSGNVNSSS
(Cyclic AMP is a second messenger, typically raised through Gs and lowered through Gi signalling.)

In series [2] the target is T1, human sphingosine-1-phosphate receptor 1 (S1P1). Description: β-Arrestin2 recruitment assay (PathHunter), S1P1 CHO-K1 cells. The class given is cell-based. The conditions noted are these: for hS1P1 B-arrestin2 pEC50: β-arrestin2 recruitment, S1P1 CHO-K1 cells. In a few lines: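 Enzyme-fragment complementation read-out: agonist-driven β-arrestin2 binding to ProLink-tagged human S1P1 in stable CHO-K1 cells restores β-galactosidase, measured 1 h at room temperature after a 60 min 37° C. compound incubation. Potency as pEC50, efficacy relative to fingolimod (SPAN).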
Target sequence in this assay (P21453 whole entry, looked up): as above
Target sequence in this assay (P32121 whole entry partner, looked up): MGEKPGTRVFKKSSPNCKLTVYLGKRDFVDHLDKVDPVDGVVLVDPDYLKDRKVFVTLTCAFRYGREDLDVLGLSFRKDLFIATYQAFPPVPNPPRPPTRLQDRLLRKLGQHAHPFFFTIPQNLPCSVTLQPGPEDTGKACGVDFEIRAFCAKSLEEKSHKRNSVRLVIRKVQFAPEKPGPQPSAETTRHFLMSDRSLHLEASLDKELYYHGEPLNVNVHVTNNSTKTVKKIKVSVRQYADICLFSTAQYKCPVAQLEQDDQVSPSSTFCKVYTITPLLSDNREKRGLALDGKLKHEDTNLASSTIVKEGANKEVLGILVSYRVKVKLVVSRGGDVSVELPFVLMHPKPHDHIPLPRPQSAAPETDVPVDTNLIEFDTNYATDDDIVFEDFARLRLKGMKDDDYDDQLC
Background: Activated receptors often draw arrestin, which recruitment assays turn into a signal.

In series [3] the target is human sphingosine-1-phosphate receptor 2 (S1P2) (Homo sapiens (Human), UniProt O95136). Description: Inositol monophosphate production (IP-one TB kit), S1P2 CHO-K1 cells. The class given is cell-based. The settings on record: inositol monophosphate accumulation, hS1P2. In a few lines: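 Stable CHO-K1 cells expressing EA-β-arrestin2 and Prolink-tagged human S1P2, plated overnight, then exposed to compounds in IP-one stimulation buffer for 60 min at 37 °C. IP1 read by TR-FRET after 1 h at RT. Efficacy (SPAN) normalized to CYM5520; potency as pEC50.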
human sphingosine-1-phosphate receptor 2 (S1P2), sequence (O95136 whole entry): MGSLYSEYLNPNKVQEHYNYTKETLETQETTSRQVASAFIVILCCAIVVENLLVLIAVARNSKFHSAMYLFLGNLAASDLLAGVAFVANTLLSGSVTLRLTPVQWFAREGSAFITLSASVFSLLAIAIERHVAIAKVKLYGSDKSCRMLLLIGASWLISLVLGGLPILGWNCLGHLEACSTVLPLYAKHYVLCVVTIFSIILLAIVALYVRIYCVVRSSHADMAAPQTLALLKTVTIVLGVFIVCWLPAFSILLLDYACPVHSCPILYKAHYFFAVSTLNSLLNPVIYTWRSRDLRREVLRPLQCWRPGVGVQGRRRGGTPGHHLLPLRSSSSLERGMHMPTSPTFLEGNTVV

Series [4] deals with human sphingosine-1-phosphate receptor 3 (S1P3) (Homo sapiens (Human), UniProt Q99500). Briefly: Inhibition of cAMP production (HTRF), S1P3 CHO-K1 cells. In kind it is cell-based. The conditions noted are these: inhibition of cAMP production, hS1P3.
human sphingosine-1-phosphate receptor 3 (S1P3), sequence (Q99500 whole entry): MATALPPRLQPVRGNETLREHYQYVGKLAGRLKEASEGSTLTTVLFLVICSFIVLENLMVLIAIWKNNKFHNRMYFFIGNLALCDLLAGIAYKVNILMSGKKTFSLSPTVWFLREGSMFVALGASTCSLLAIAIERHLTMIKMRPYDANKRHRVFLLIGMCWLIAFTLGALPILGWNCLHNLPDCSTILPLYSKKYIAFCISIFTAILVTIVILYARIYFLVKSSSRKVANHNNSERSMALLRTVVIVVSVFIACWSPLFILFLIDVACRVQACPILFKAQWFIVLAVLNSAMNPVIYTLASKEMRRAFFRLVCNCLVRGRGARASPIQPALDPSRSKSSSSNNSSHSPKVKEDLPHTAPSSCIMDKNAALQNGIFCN
Series [5] has as its target sphingosine-1-phosphate receptor 5 (S1P5) (Homo sapiens (Human), UniProt Q9H228). Description: Inhibition of cAMP production (HTRF), S1P5 CHO-K1 cells. In kind it is cell-based. The conditions noted are these: inhibition of cAMP production, hS1P5.
Series [6] deals with peripheral blood lymphocytes. Briefly: Peripheral blood lymphocytes (lymphopenia) in c57bl/6 mice, acute and chronic studies. The class given is in vivo. The conditions noted are these: peripheral blood lymphocytes vs vehicle; 6 mg/kg sc, 7 days. Here is the method: Compounds were tested for changes in peripheral blood lymphocytes in c57bl/6 mice. In acute studies, animals (n=5/group) were dosed subcutaneously with test compound at a dose of 3 mg/kg. Animals were sacrificed at specific time points and 500 μl of whole blood was collected in EDTA (K2) Eppendorf tubes. Blood was stored on ice and shipped immediately overnight delivery to Charles River Laboratories for analysis. CRL ran samples through their WBC/differential panel on an Advia 120 instrument. We received peripheral lymphocyte counts (10^3 cells/μl) for each blood sample. Treatment group means were compared to a vehicle treatment group for statistical significance. In chronic studies, animals (n=6-8/group) were dosed subcutaneously with test compound either in a dose response paradigm (highest dose of 3 mg/kg) or in a screening paradigm at 6 mg/kg for seven days. On the seventh day, animals were sacrificed 45 minutes after the final dose. Whole blood was collected and analyzed as described for acute studies. […]

For series [7], the system named is oxaliplatin induced peripheral neuropathy. Description: Reversal of allodynia induced by oxaliplatin in mice (von Frey frequency method). In kind it is in vivo, c57bl/6 mice. The settings on record: tested 30 min after dosing. The procedure: Compounds were tested for efficacy in mouse models of chemotherapy induced peripheral neuropathy. […] For these studies […]/6 mice are habituated to the test environment and baseline measurements of pain sensitivity are assessed. To determine mechanical responses, the threshold for responses to punctate mechanical stimuli (mechanical hyperalgesia) was tested according to the frequency method. In brief, the plantar surface of the animal hindpaw was stimulated with a single von Frey monofilament (0.4 g) for approximately 1-2 seconds. If there was a withdrawal response, it was recorded as a positive response. A response was defined as a lifting or shaking of the paw upon stimulation. This was repeated ten times for each mouse. The final measurement for each mouse is the % non-response to stimulation for the ten trials. The % non-response to stimulation is converted to a % MPE. For paclitaxel induced peripheral neuropathy, a series of injections of PAC (6 mg/kg, i.p.) on days 1, 3, 5 and 7 is used to induce peripheral neuropathy. After approximately 14 days from the initiation of PAC injections, animals are re-assessed for mechanical sensitivity. […] On test day animals are dosed with compounds either subcutaneously or orally and tested for mechanical response by the frequency method either 30 min (s.c.) or 60 min (p.o.) after drug administration. Data is presented as a % MPE. For oxaliplatin induced peripheral neuropathy, a series of injections of OXA (4 mg/kg, i.p.) on days 1-5 is used to induce peripheral neuropathy. After approximately 14 days from the initiation of PAC injections, animals are re-assessed for mechanical sensitivity. […] On test day animals are dosed with compounds subcutaneously and tested for mechanical response by the frequency method 30 min after drug administration. Data is presented as a % MPE. One or more of the compounds show reversal of chemotherapeutic induced peripheral neuropathy.

For series [8], the system named is paclitaxel induced peripheral neuropathy. Briefly: Reversal of allodynia induced by paclitaxel in mice (s.c. or p.o., von Frey frequency method). The conditions noted are these: Mus musculus; for inhibition in vivo at 1 mg/kg: sc, 0.5 h, 1 mg/kg s.c., tested 30 min after dosing, read-out: Screen @ 1 mg/kg sc (% MPE); for inhibition in vivo at 3 mg/kg: po, 1 h, 3 mg/kg p.o., tested 60 min after dosing, read-out: Screen @ 3 mg/kg po (% MPE). In kind it is in vivo, c57bl/6 mice. The essentials: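 Neuropathy was induced in mice by paclitaxel (6 mg/kg i.p., days 1, 3, 5, 7) or oxaliplatin (4 mg/kg i.p., days 1-5), with re-testing about 14 days later. Compounds were given s.c. (tested at 30 min) or p.o. (tested at 60 min; paclitaxel only). A 0.4 g von Frey filament was applied ten times per paw, and % non-response was converted to % MPE.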

In another series the target is hERG channel (Homo sapiens (Human), UniProt Q12809). Description: Automated Qpatch patch-clamp hERG assay. (The patch-clamp technique gives a direct electrical read-out from membranes.)
hERG channel, sequence (Q12809 whole entry): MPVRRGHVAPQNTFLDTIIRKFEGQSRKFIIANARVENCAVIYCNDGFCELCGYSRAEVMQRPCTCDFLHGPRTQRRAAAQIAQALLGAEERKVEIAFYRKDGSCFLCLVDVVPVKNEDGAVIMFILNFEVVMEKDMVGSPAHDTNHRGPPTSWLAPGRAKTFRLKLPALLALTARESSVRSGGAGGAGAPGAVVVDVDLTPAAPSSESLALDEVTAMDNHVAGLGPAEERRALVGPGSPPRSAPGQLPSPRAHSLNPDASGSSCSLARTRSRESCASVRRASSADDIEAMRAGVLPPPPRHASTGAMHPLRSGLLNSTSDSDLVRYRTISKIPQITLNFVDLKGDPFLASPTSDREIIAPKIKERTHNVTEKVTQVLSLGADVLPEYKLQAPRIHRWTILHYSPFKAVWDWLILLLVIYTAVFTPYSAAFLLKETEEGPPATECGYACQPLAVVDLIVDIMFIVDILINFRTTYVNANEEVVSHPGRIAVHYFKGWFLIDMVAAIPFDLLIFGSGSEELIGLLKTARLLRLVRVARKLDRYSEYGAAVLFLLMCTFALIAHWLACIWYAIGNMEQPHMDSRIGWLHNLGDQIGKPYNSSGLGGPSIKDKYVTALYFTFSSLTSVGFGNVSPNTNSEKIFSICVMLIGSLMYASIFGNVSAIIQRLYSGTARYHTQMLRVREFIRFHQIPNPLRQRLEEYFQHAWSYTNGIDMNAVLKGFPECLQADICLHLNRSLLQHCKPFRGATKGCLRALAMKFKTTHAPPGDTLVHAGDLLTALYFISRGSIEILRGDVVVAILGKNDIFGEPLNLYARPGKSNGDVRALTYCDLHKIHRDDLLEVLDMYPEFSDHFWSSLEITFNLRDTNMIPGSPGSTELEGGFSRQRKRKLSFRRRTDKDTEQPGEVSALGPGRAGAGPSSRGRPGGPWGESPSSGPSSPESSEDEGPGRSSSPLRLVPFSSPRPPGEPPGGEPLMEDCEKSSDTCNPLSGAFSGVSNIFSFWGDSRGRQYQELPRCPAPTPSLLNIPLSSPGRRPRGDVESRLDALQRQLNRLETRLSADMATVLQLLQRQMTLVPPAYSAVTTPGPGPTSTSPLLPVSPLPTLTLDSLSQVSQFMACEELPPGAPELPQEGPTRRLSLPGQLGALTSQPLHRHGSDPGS
The subject of series [9] is A2780 human ovarian carcinoma. Description: A2780 human ovarian carcinoma xenograft tumor growth delay in athymic nude mice. The settings on record: monotherapy vs control; paclitaxel i.v. qod×5; ozanimod or Compound 103 p.o. qd to end; 60-day study.
Procedure: Female athymic nude mice (Crl:NU(NCr)-Foxnlnu, Charles River Laboratories) were implanted with A2780 human ovarian carcinoma cells to initiate tumor growth.
Each mouse received 1×10^7 cells (0.1 mL cell suspension) subcutaneously in the right flank, and tumors were monitored as their volumes approached the target range of 100 to 150 mm3. Fourteen days later, designated as Day 1 of the study, mice were sorted into six groups of ten each. […] Tumors were measured twice weekly for the study duration.
Starting on Day 1 of the study, six groups (n=10) of female athymic nude mice with established A2780 tumors were treated according to the following plan. Treatments were administered either by intravenous injection (i.v.) or oral gavage (p.o.) and were adjusted to the body weight of the individual animal. Group 1 received Vehicle 1, i.v., once every other day for five doses (qod×5) and Vehicle 2, p.o., once daily to the end of the study (qd to end), and served as the control group for efficacy analysis. Group 2, the paclitaxel monotherapy group, received paclitaxel i.v., qod×5 plus Vehicle 2, p.o., qd to end. Group 3, the ozanimod monotherapy group, received ozanimod p.o., qd to end plus Vehicle 1, i.v., qod×5. Combination Group 4 received ozanimod p.o., qd to end plus paclitaxel i.v., qod×5.
Animals were monitored individually, and each mouse was euthanized when its tumor reached the endpoint volume of 2000 mm3 or on the final day, whichever came first. The time to endpoint (TTE) was calculated for each mouse. Treatment outcome was determined from percent tumor growth delay (% TGD), defined as the percent increase in median TTE for treated versus control mice, with differences in TTE values between groups deemed statistically significant at P<0.05 using logrank survival analysis. Mice were also monitored for complete regression (CR) and partial regression (PR) responses. An animal with a CR at the end of the study was additionally classified as a tumor-free survivor (TFS). Treatment tolerability was assessed by body weight measurements and frequent observation for clinical signs of treatment-related side effects.

sphingosine-1-phosphate receptor 5 (S1P5), sequence (Q9H228 whole entry): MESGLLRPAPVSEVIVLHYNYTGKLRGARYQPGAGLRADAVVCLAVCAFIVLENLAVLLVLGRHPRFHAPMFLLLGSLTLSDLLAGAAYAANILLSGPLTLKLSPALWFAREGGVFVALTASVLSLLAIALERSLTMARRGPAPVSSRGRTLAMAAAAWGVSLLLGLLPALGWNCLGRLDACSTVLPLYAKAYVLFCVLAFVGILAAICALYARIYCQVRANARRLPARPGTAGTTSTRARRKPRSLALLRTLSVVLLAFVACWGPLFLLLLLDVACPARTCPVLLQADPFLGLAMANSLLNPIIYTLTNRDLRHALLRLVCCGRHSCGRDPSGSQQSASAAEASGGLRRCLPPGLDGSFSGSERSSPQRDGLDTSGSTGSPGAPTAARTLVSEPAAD

As to `CC(C)n1nnc2cc(-c3nc(-c4cccc5c4OCO5)no3)ccc21` [Compound 32, 3-(benzo[d][1,3]dioxol-4-yl)-5-(1-isopropyl-1H-benzo[d][1,2,3]triazol-5-yl)-1,2,4-oxadiazole], the “hS1P1 cAMP pEC50” value in series [1] is recorded as over 6.5. Besides, the “hS1P1 B-arrestin2 pEC50” value in series [2] is over 5. Further, the “hS1P2 IP-one pEC50” value in series [3] is under 5.0. Further, in series [4], the “hS1P3 cAMP pEC50” value was under 5.0. For the same molecule, in [5], the “hS1P5 cAMP pEC50” value is reported as under 5.0. In addition, the “Lymphopenia: Effect and Doses, mg/kg, sc” value in series [6] is reported as “no change: 6 mg/kg, 7 days”.

Turning to `COc1ccc(-c2noc(-c3ccc4c(c3)nnn4C(C)C)n2)c(C)c1` [Compound 55, 5-(1-isopropyl-1H-benzo[d][1,2,3]triazol-5-yl)-3-(4-methoxy-2-methylphenyl)-1,2,4-oxadiazole], the “hS1P1 cAMP pEC50” value in [1] is over 6.5. Besides, in series [2], the “hS1P1 B-arrestin2 pEC50” value is recorded as over 5. For the same molecule, the “Screen @ 3 mg/kg sc (% MPE)” value in series [7] is over 50 % MPE. The inhibition in vivo at 1 mg/kg in [8] is under 50%. Moreover, in [6], the “Lymphopenia: Effect and Doses, mg/kg, sc” value is “no change: 6 mg/kg, 7 days”.

Turning to `Cc1ccsc1-c1noc(-c2ccc3c(c2)nnn3C(C)C)n1` [Compound 169, 5-[3-(3-methylthiophen-2-yl)-1,2,4-oxadiazol-5-yl]-1-(propan-2-yl)-1H-1,2,3-benzotriazole], the “hS1P1 cAMP pEC50” value in series [1] is over 6.5. Also, the “hS1P1 B-arrestin2 pEC50” value in series [2] is reported as over 5. In addition, in [7], the “Screen @ 3 mg/kg sc (% MPE)” value is on record as over 50 % MPE. Besides, the inhibition in vivo at 1 mg/kg in [8] was over 50%. The “Lymphopenia: Effect and Doses, mg/kg, sc” value in series [6] is given as “no change: 6 mg/kg, 7 days”.

As for `N#Cc1cc(-c2nc(-c3ccc4oc(=O)[nH]c4c3)no2)ccc1NCC1CC1` [Compound 423, 2-((cyclopropylmethyl)amino)-5-(3-(2-oxo-2,3-dihydrobenzo[d]oxazol-5-yl)-1,2,4-oxadiazol-5-yl)benzonitrile], the “hS1P1 cAMP pEC50” value in [1] is given as over 6.5. Further, the “hS1P1 B-arrestin2 pEC50” value in series [2] is on record as over 5. Also, the inhibition in vivo at 3 mg/kg in series [8] was over 50%. In addition, in series [3], the “hS1P2 IP-one pEC50” value is on record as over 5.0. Further, in series [4], the “hS1P3 cAMP pEC50” value was over 5.0. Moreover, in [6], the “Lymphopenia: Effect and Doses, mg/kg, sc” value was “no change: 6 mg/kg, 7 days”.

On to `N#Cc1cc(-c2nc(-c3ccc4c(c3)NC(=O)C4)no2)ccc1NCC1CC1` [Compound 497, 2-((cyclopropylmethyl)amino)-5-(3-(2-oxoindolin-6-yl)-1,2,4-oxadiazol-5-yl)benzonitrile], for which, in series [1], the “hS1P1 cAMP pEC50” value is over 6.5. Besides, the “hS1P1 B-arrestin2 pEC50” value in series [2] is over 5. Moreover, in [8], the inhibition in vivo at 3 mg/kg is under 50%. The 50% inhibitory concentration (IC50) (commonly the concentration needed to halve the response being measured) against hERG channel was over 10 µM.

For the molecule `CC(F)(F)CNc1ccc(-c2nnc(-c3ccc4[nH]cnc4c3)o2)cc1C#N` [Compound 520, 5-[5-(1H-1,3-benzodiazol-5-yl)-1,3,4-oxadiazol-2-yl]-2-[(2,2-difluoropropyl)amino]benzonitrile], the Emax in series [1] (CHO-K1, efficacy (SPAN) normalized to fingolimod, read-out: hS1P1 cAMP SPAN) is over 75%; in series [2] (CHO-K1, efficacy (SPAN) normalized to fingolimod, read-out: hS1P1 B-arrestin2 SPAN) it was over 75%. In series [1], the “hS1P1 cAMP pEC50” value is recorded as over 6.5. Moreover, the “hS1P1 B-arrestin2 pEC50” value in series [2] is reported as over 5. Also, the inhibition in vivo at 3 mg/kg in series [8] was over 50%. In [6], the “Lymphopenia: Effect and Doses, mg/kg, sc” value is listed as “no change: 6 mg/kg, 7 days”. Besides, the 50% inhibitory concentration (IC50) on hERG channel was over 10 µM.

Regarding `CC(C)Nc1ccc(-c2nc(-c3ccc4nonc4c3)no2)cc1C#N` [Compound 730, 5-[3-(2,1,3-benzoxadiazol-5-yl)-1,2,4-oxadiazol-5-yl]-2-[(propan-2-yl)amino]benzonitrile], the inhibition in vivo at 3 mg/kg in series [8] is over 50%. Also, in series [6], the “Lymphopenia: Effect and Doses, mg/kg, sc” value is reported as “no change: 6 mg/kg, 7 days”. At hERG channel, this molecule yielded an IC50 of over 10 µM.

In the case of `CC(C)Oc1ccc(-c2ncc(-c3cccnc3)cn2)cc1C#N` [Compound 738, 2-isopropoxy-5-(5-(pyridin-3-yl)pyrimidin-2-yl)benzonitrile], the IC50 on hERG channel is over 10 µM.

In turn, `CC(C)Oc1ccc(-c2ncc(-c3ccccn3)cn2)cc1C#N` [Compound 742, 2-isopropoxy-5-(5-(pyridin-2-yl)pyrimidin-2-yl)benzonitrile] showed a concentration for half-maximal inhibition (IC50) at hERG channel of over 10 µM.

Turning to `CC(C)Nc1ccc(-c2ncc(-c3ccnc(O)c3)cn2)cc1C#N` [Compound 743, 5-(5-(2-hydroxypyridin-4-yl)pyrimidin-2-yl)-2-(isopropylamino) benzonitrile], the IC50 on hERG channel was over 10 µM.

Molecule `CC(C)Oc1ccc(-c2ncc(-c3ccnc(O)c3)cn2)cc1C#N` [Compound 744, 5-(5-(2-hydroxypyridin-4-yl)pyrimidin-2-yl)-2-isopropoxybenzonitrile] showed an IC50 against hERG channel of over 10 µM.

As for `CC(=O)O[C@H]1C(=O)[C@@]2(C)[C@H]([C@H](OC(=O)c3ccccc3)[C@]3(O)C[C@H](OC(=O)[C@H](O)[C@@H](NC(=O)c4ccccc4)c4ccccc4)C(C)=C1C3(C)C)[C@]1(OC(C)=O)CO[C@@H]1C[C@@H]2O` [Paclitaxel, reference compound], the “percent tumor growth delay (% TGD), monotherapy” value in series [9] is recorded as 128%.

Regarding `CC(C)Oc1ccc(-c2nc(-c3cccc4c3CC[C@@H]4NCCO)no2)cc1C#N` [ozanimod, reference compound], in series [9], the “percent tumor growth delay (% TGD), monotherapy” value amounted to 31%.
